Measured values from publication PMC2922490 (Bioorganic & medicinal chemistry letters, 2010).

Assays:
[1] = type: in vitro ADME; details: human microsomes, incubation period of 60 min
[2] = type: in vitro ADME; details: rat microsomes, incubation period of 60 min
[3] = type: in vitro ADME; details: rat protein binding
[4] = type: in vitro ADME; details: human protein binding
hmGlu4 = hmGlu4 (Homo sapiens, UniProt Q14833)
Sequence of hmGlu4 (Q14833 33-912): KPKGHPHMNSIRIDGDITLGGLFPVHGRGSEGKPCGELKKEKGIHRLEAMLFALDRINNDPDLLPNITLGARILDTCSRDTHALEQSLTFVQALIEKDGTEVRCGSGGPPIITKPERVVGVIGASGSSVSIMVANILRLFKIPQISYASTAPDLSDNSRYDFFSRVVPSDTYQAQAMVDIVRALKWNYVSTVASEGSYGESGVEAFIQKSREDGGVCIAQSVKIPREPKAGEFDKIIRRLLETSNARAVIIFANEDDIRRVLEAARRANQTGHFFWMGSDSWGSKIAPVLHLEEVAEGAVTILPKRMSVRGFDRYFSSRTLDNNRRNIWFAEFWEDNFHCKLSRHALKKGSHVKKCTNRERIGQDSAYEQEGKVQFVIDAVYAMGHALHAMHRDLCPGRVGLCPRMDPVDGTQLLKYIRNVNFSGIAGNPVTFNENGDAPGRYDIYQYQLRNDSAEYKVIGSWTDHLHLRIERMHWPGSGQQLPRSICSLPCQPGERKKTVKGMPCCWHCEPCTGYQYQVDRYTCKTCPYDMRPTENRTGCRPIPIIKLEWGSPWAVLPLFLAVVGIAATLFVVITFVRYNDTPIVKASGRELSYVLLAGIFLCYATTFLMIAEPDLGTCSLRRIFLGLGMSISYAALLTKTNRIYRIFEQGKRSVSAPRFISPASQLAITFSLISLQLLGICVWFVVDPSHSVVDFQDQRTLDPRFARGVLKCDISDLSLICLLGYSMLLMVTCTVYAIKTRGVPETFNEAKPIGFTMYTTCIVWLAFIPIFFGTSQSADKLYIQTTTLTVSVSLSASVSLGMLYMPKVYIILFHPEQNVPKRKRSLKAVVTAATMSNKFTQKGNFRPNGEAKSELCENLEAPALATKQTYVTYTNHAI

Row | SMILES | HLM (% remaining) [1] | RLM (% remaining) [2] | PPB (r) (% free) [3] | PPB (h) (% free) [4] | increase in potency relative to 4 (hmGlu4; 2-furyl amide of 4 changed to 2-pyridyl amide) | receptor activation in the absence of glutamate (hmGlu4; mGlu4/Gqi5 CHO cells, absence of an EC20 concentration of glutamate) | loss of potency (hmGlu4; relative to the parent compound (13 vs 11; N-Me vs NH sulfonamides))
1 | CN(c1ccccc1Cl)S(=O)(=O)c1ccc(NC(=O)c2nccs2)cc1 [Compound 9g] | 0.1 % remaining | 0.08 % remaining | 37 % free | 0.5 % free | – | – | –
2 | O=C(Nc1ccc(S(=O)(=O)Nc2ccccc2Cl)cc1)c1ccccn1 [Compound 8b] | 0.02 % remaining | 0.02 % remaining | 0.3 % free | 0.1 % free | – | – | –
3 | CN(c1ccccc1Cl)S(=O)(=O)c1ccc(NC(=O)c2ccncn2)cc1 [Compound 9f] | 2.5 % remaining | 3.3 % remaining | 2.7 % free | 1.7 % free | – | – | –
4 | Cc1cc(C)c(NS(=O)(=O)c2ccc(NC(=O)c3ccco3)cc2)c(C)c1 [Compound 4] | – | 93.3 % remaining | 8.2 % free | 2.2 % free | – | – | –
5 | O=C(Nc1ccc(S(=O)(=O)Nc2ccccc2Cl)c(Cl)c1)c1ccccn1 [Compound 11] | 0.63 % remaining | 0.02 % remaining | – | – | – | – | –
6 | Cc1cc(C)c(NS(=O)(=O)c2ccc(NC(=O)c3ccccn3)cc2)c(C)c1 [Compound 5] | – | 25.8 % remaining | 0.3 % free | 0.1 % free | 30 fold | does not elicit receptor activation | –
7 | O=C(Nc1ccc(Cl)c(S(=O)(=O)Nc2ccccc2Cl)c1)c1ccccn1 [Compound 13] | 11.9 % remaining | 0.05 % remaining | – | – | – | – | 36 fold
8 | COc1ccccc1NS(=O)(=O)c1ccc(NC(=O)c2ccccn2)cc1OC [Compound 10] | 1.3 % remaining | 0.05 % remaining | 12.7 % free | 0.3 % free | – | – | –
9 | O=C(Nc1ccc(S(=O)(=O)Nc2ccccc2Cl)cc1)c1nccs1 [Compound 9d] | 0.84 % remaining | 1.2 % remaining | 0.1 % free | 0.1 % free | – | – | –
